Test results reported in ChEMBL document CHEMBL1125949, “Synthesis and biological evaluation of 3-amino-2-(4-chlorophenyl)1,1-difluoropropyl phosphonic acid” (Bioorg Med Chem Lett, 1991).

Species on record: Rattus norvegicus
Test: GABA-B agonistic activity in rat anococcygeus
Assay type: functional

EC50: ~300 µM
SMILES: NCC(c1ccc(Cl)cc1)C(F)(F)P(=O)(O)O (stereo unspecified)
